Test results from PMC4965013, “Open Source Drug Discovery with the Malaria Box Compound Collection for Neglected Diseases and Beyond” (PLoS Pathogens, 2016).
Read-outs that look alike come from different tables or passages of the source. Values belong to the compound of their own block, whether it stands above or below them.

Legend:
P. falciparum 3D7 = assay: [3H]-hypoxanthine growth inhibition, modified HCO3- or O2; format: cell-based; conditions: for IC50: Plasmodium falciparum
[1] = tested on: P. falciparum 3D7 trophozoites; assay: Metabolomic fingerprint profiling LC-MS; format: cell-based, Plasmodium falciparum; parameters: UDP-D-glucose / ADP-D-glucose: unit not given here; conditions: for Acetyllysine / N-acetyl-L-ornithine / N-carbamoyl-L-aspartate / NADPH / dAMP / dCMP / dTDP / dTMP / dTTP / dihydroorotate / orotate / DLH / DLS/SDL/SID / PD / PEE / PVNF / 3-phosphoglycerate / ADP-D-glucose / ATP / CDP / D-sedoheptulose-1/7-phosphate / FAD / GMP / NAD+ / NADP+ / Octoluse Bisphosphate / Pyroglutamic acid / UDP-D-glucose / UDP-D-glucuronate / UDP-N-acetyl-glucosamine / UDP / UMP / UTP / a-ketoglutarate / citrate/isocitrate / cytidine / dATP / dGMP/AMP / fumarate / glucose-1/6-phosphate / glycerate / guanine / guanosine / hypoxanthine / indole / inosine / nicotinate / ornithine / phosphoenolpyruvate / pyruvate / ribose-phosphate / sarcosine/alanine / sn-glycerol-3-phosphate / succinate/methylmalonic acid / uridine / xanthosine: S2 Table Metabolomics; for Acetyllysine: metabolite Acetyllysine; for N-acetyl-L-ornithine: metabolite N-acetyl-L-ornithine; for N-carbamoyl-L-aspartate: metabolite N-carbamoyl-L-aspartate; for NADPH: metabolite NADPH; for dAMP: metabolite dAMP; for dCMP: metabolite dCMP; for dTDP: metabolite dTDP; for dTMP: metabolite dTMP; for dTTP: metabolite dTTP; for dihydroorotate: metabolite dihydroorotate; for orotate: metabolite orotate; for DLH: peptide DLH; for DLS/SDL/SID: peptide DLS/SDL/SID; for PD: peptide PD; for PEE: peptide PEE; for PVNF: peptide PVNF; for 3-phosphoglycerate: metabolite 3-phosphoglycerate; for ADP-D-glucose: metabolite ADP-D-glucose; for ATP: metabolite ATP; for CDP: metabolite CDP; for CDP / D-sedoheptulose-1/7-phosphate / GMP / Octoluse Bisphosphate / UDP / UMP / UTP / citrate/isocitrate / dGMP/AMP / fumarate / glucose-1/6-phosphate / glycerate / guanine / guanosine / inosine / pyruvate / sarcosine/alanine / succinate/methylmalonic acid / uridine / xanthosine: change in metabolite level after compound treatment; for D-sedoheptulose-1/7-phosphate: metabolite D-sedoheptulose-1/7-phosphate; for FAD: metabolite FAD; for GMP: metabolite GMP; for NAD+: metabolite NAD+; for NADP+: metabolite NADP+; for Octoluse Bisphosphate: metabolite Octoluse Bisphosphate; for Pyroglutamic acid: metabolite Pyroglutamic acid; for UDP-D-glucose: metabolite UDP-D-glucose; for UDP-D-glucuronate: metabolite UDP-D-glucuronate; for UDP-N-acetyl-glucosamine: metabolite UDP-N-acetyl-glucosamine; for UDP: metabolite UDP; for UMP: metabolite UMP; for UTP: metabolite UTP; for a-ketoglutarate: metabolite a-ketoglutarate; for citrate/isocitrate: metabolite citrate/isocitrate; for cytidine: metabolite cytidine; for dATP: metabolite dATP; for dGMP/AMP: metabolite dGMP/AMP; for fumarate: metabolite fumarate; for glucose-1/6-phosphate: metabolite glucose-1/6-phosphate; for glycerate: metabolite glycerate; for guanine: metabolite guanine; for guanosine: metabolite guanosine; for hypoxanthine: metabolite hypoxanthine; for indole: metabolite indole; for inosine: metabolite inosine; for 2_3-Diphosphoglyceric acid / 4-phosphopantothenate / 6-phospho-D-gluconate / FMN / IMP / Pyrophosphate / Sedoheptoluse bisphosphate / cyclic-AMP / glutathione disulfide / lactate / myo-inositol: metabolite level change after treatment; for nicotinate: metabolite nicotinate; for ornithine: metabolite ornithine; for phosphoenolpyruvate: metabolite phosphoenolpyruvate; for pyruvate: metabolite pyruvate; for ribose-phosphate: metabolite ribose-phosphate; for sarcosine/alanine: metabolite sarcosine/alanine; for sn-glycerol-3-phosphate: metabolite sn-glycerol-3-phosphate; for succinate/methylmalonic acid: metabolite succinate/methylmalonic acid; for uridine: metabolite uridine; for xanthosine: metabolite xanthosine
P. falciparum = assay: EC50 listed in S2 Table Metabolomics (used to set the concentration tested); format: cell-based; conditions: Plasmodium falciparum; EC50 used for Factor_XEC50 in metabolomics; read-out: EC50_nM

EC50 (P. falciparum): 242 nM
Compound: CCCc1c(CC)c(=N)c2ccccc2n1C [MMV008416]
fold change (IC50normal/ IC50hypoxia) (P. falciparum 3D7): 6.1
IC50 (P. falciparum 3D7; 3D7, read-out: P. falciparum 3D7 IC50 1% O2, 1% O2 hypoxia): 65 nM
IC50 (P. falciparum 3D7; 3D7, read-out: P. falciparum 3D7 IC50 5% O2): 397 nM
Acetyllysine [1]: 0.2915
N-acetyl-L-ornithine [1]: 0.3364
N-carbamoyl-L-aspartate [1]: 0.3652
NADPH [1]: 0.8856
dAMP [1]: 0.5762
dCMP [1]: 3.613
dTDP [1]: 0.4591
dTMP [1]: 0.9083
dTTP [1]: 0.4804
dihydroorotate [1]: 0.2294
orotate [1]: -0.1417
DLH [1]: -1.006
DLS/SDL/SID [1]: 0.3509
PD [1]: 0.4359
PEE [1]: -0.9814
PVNF [1]: 0.2215
3-phosphoglycerate [1]: -0.02776
ADP-D-glucose [1]: 0.4196
ATP [1]: 0.6896
CDP [1]: 0.2951
D-sedoheptulose-1/7-phosphate [1]: -0.3684
FAD [1]: 0.5238
GMP [1]: 0.02334
NAD+ [1]: 0.4432
NADP+ [1]: 0.7628
Octoluse Bisphosphate [1]: 0.3902
Pyroglutamic acid [1]: -0.3783
UDP-D-glucose [1]: 0.135
UDP-D-glucuronate [1]: -0.2053
UDP-N-acetyl-glucosamine [1]: 0.4341
UDP [1]: 0.7261
UMP [1]: -0.1733
UTP [1]: 0.4819
a-ketoglutarate [1]: 0.04368
citrate/isocitrate [1]: -1.579
cytidine [1]: 0.4905
dATP [1]: 0.253
dGMP/AMP [1]: 0.3177
fumarate [1]: -0.39
glucose-1/6-phosphate [1]: 2.308
glycerate [1]: 0.1238
guanine [1]: 0.3854
guanosine [1]: -0.8003
hypoxanthine [1]: 0.09764
indole [1]: 0.1467
inosine [1]: -0.1012
2_3-Diphosphoglyceric acid [1]: 0.2083
4-phosphopantothenate [1]: 0.7504
6-phospho-D-gluconate [1]: 0.5606
FMN [1]: 0.7862
IMP [1]: 0.4308
Pyrophosphate [1]: -0.6119
Sedoheptoluse bisphosphate [1]: 0.3141
cyclic-AMP [1]: 0.6453
glutathione disulfide [1]: 0.5116
lactate [1]: 1.188
myo-inositol [1]: 2.818
nicotinate [1]: -0.5574
ornithine [1]: -0.1174
phosphoenolpyruvate [1]: -0.4016
pyruvate [1]: 0.4708
ribose-phosphate [1]: 0.2759
sarcosine/alanine [1]: 0.4883
sn-glycerol-3-phosphate [1]: 0.06223
succinate/methylmalonic acid [1]: -0.5916
uridine [1]: 0.398
xanthosine [1]: -0.8913

EC50 (P. falciparum): 516 nM
Compound: COc1ccc(C(=O)Nc2nonc2-c2ccc(OC)c(OC)c2)cc1Cl [MMV011567]
Acetyllysine [1]: -2.7765
N-acetyl-L-ornithine [1]: -1.047
N-carbamoyl-L-aspartate [1]: -1.546
NADPH [1]: -0.479
dAMP [1]: 2.616
dCMP [1]: 7.615
dTDP [1]: 4.376
dTMP [1]: 5.592
dTTP [1]: 4.192
dihydroorotate [1]: -1.311
orotate [1]: 1.606
DLH [1]: -3.738
DLS/SDL/SID [1]: -3.085
PD [1]: -0.447
PEE [1]: -2.659
PVNF [1]: -4.149
3-phosphoglycerate [1]: -0.4312
ADP-D-glucose [1]: -0.3179
ATP [1]: 0.7262
CDP [1]: 1.853
D-sedoheptulose-1/7-phosphate [1]: -0.5728
FAD [1]: -0.6926
GMP [1]: -3.051
NAD+ [1]: -0.6365
NADP+ [1]: -0.4288
Octoluse Bisphosphate [1]: -1.352
Pyroglutamic acid [1]: 0.8228
UDP-D-glucose [1]: 0.2841
UDP-D-glucuronate [1]: 0.3235
UDP-N-acetyl-glucosamine [1]: 0.4364
UDP [1]: 1.166
UMP [1]: 0.1995
UTP [1]: 0.7659
a-ketoglutarate [1]: -0.1289
citrate/isocitrate [1]: 1.575
cytidine [1]: 0.6834
dATP [1]: 1.434
dGMP/AMP [1]: -0.9068
fumarate [1]: 0.5595
glucose-1/6-phosphate [1]: -0.4437
glycerate [1]: -0.2059
guanine [1]: 1.129
guanosine [1]: 0.9628
hypoxanthine [1]: 0.8431
indole [1]: 0.1357
inosine [1]: -0.4655
2_3-Diphosphoglyceric acid [1]: -0.4768
4-phosphopantothenate [1]: 0.1624
6-phospho-D-gluconate [1]: 0.2149
FMN [1]: 0.2743
IMP [1]: 0.2415
Pyrophosphate [1]: -0.9055
Sedoheptoluse bisphosphate [1]: -0.2891
cyclic-AMP [1]: 0.1677
glutathione disulfide [1]: 0.2649
lactate [1]: -0.6986
myo-inositol [1]: -1.672
nicotinate [1]: 1.088
ornithine [1]: 0.1615
phosphoenolpyruvate [1]: -0.2076
pyruvate [1]: -1.296
ribose-phosphate [1]: -0.6006
sarcosine/alanine [1]: -1.205
sn-glycerol-3-phosphate [1]: 0.6609
succinate/methylmalonic acid [1]: -0.1426
uridine [1]: 0.07808
xanthosine [1]: 0.9674

EC50 (P. falciparum): 378 nM
Compound: CCc1c(C)c(=N)c2ccccc2n1C [MMV006278]
Acetyllysine [1]: -0.2738
N-acetyl-L-ornithine [1]: -0.3387
N-carbamoyl-L-aspartate [1]: 0.04339
NADPH [1]: -0.1545
dAMP [1]: -0.2592
dCMP [1]: 0.05199
dTDP [1]: -0.2955
dTMP [1]: -0.278
dTTP [1]: 0.1315
dihydroorotate [1]: 0.1029
orotate [1]: -0.07528
DLH [1]: 0.1151
DLS/SDL/SID [1]: -0.1067
PD [1]: -0.1923
PEE [1]: 0.09363
PVNF [1]: -0.2186
3-phosphoglycerate [1]: -0.1758
ADP-D-glucose [1]: -0.3132
ATP [1]: -0.07819
CDP [1]: -0.1774
D-sedoheptulose-1/7-phosphate [1]: -0.2519
FAD [1]: -0.07776
GMP [1]: -0.3571
NAD+ [1]: -0.07608
NADP+ [1]: -0.2182
Octoluse Bisphosphate [1]: -0.2383
Pyroglutamic acid [1]: -0.07564
UDP-D-glucose [1]: -0.16
UDP-D-glucuronate [1]: -0.1623
UDP-N-acetyl-glucosamine [1]: -0.2266
UDP [1]: -0.2326
UMP [1]: -0.3171
UTP [1]: 0.05042
a-ketoglutarate [1]: 0.05252
citrate/isocitrate [1]: 0.03563
cytidine [1]: -0.182
dATP [1]: 0.1448
dGMP/AMP [1]: -0.3534
fumarate [1]: -0.3107
glucose-1/6-phosphate [1]: -0.535
glycerate [1]: -0.4983
guanine [1]: -0.2094
guanosine [1]: -0.1411
hypoxanthine [1]: 0.04937
indole [1]: -0.04764
inosine [1]: -0.3767
2_3-Diphosphoglyceric acid [1]: -0.2671
4-phosphopantothenate [1]: -0.1093
6-phospho-D-gluconate [1]: -0.1749
FMN [1]: 0.06658
IMP [1]: -0.1794
Pyrophosphate [1]: -0.2417
Sedoheptoluse bisphosphate [1]: -0.1437
cyclic-AMP [1]: -0.03098
glutathione disulfide [1]: -0.1999
lactate [1]: 0.04854
myo-inositol [1]: 0.07173
nicotinate [1]: -0.02818
ornithine [1]: 0.04171
phosphoenolpyruvate [1]: -0.1381
pyruvate [1]: -0.06156
ribose-phosphate [1]: 0.02401
sarcosine/alanine [1]: -0.2797
sn-glycerol-3-phosphate [1]: -0.6565
succinate/methylmalonic acid [1]: -0.7483
uridine [1]: -0.02002
xanthosine [1]: -0.104
